The subject of series [1] is Pseudomonas aeruginosa strain PAO. Particulars: in vivo.
In series [2] the target is AcPAO(128-144)OH (Pseudomonas aeruginosa, UniProt P04739). The series is classed as binding. Particulars: for cross-reactivity of the antiserum with PAO: antiserum raised to the named peptide.
In another series the test system is P1 wild-type. Put plainly: Active immunization with peptide, mice, P1 wild-type challenge. Particulars: immunized animals (FIGS. 4, 5). The series is classed as in vivo, Pseudomonas aeruginosa. As to the method:
(§1) A.BY/SnJ mice were actively immunized at week 0 with 40-50 μg of peptide-tetanus toxoid conjugate mixed with 100 μg of Adjuvax as adjuvant in 50 μl of 10 mM PBS at pH 7.2. Control mice were given 50 μ of 10 mM PBS at pH 7.2 containing 100 μg of Adjuvax. […] Each test group and the control group consisted of ten animals. The effectiveness of the vaccine was determined by the survival rate of the test animals up to 48 hours.

The test system of a further series is PAK wild-type. In words: Active immunization with peptide, mice, PAK wild-type challenge. The format is in vivo, Pseudomonas aeruginosa. Particulars: immunized animals (FIG. 7). As for the experimental part: as §1
The next series has as its system KB7 wild-type. In words: Active immunization with peptide, mice, KB7 wild-type challenge. The following applies: immunized animals (FIG. 6). The series is classed as in vivo, Pseudomonas aeruginosa. As to the method:
as §1

For the next series, the system named is AcP1(126-148)OH. In words: Competition ELISA, antiserum affinity for P1 peptide. The series is classed as binding, Pseudomonas aeruginosa. The following applies: for cross-reactivity of the antiserum with P1: antiserum raised to the named peptide. On the technique in general: In an ELISA, binding on a coated surface is turned into a signal by an enzyme label.

Series [3] deals with Pseudomonas aeruginosa agarose beads. Put plainly: Active intratracheal model, CF mice. The series is classed as in vivo. Particulars: 10 days post i.t. challenge.
Another series deals with AcPAK(128-144)OH (Pseudomonas aeruginosa, UniProt P02973). The series is classed as binding.
The subject of the next series is AcKB7(128-144)OH. In words: Competition ELISA, antiserum affinity for KB7 peptide. The series is classed as binding, Pseudomonas aeruginosa. Particulars: for cross-reactivity of the antiserum with KB7: antiserum raised to the named peptide.
The test system of series [4] is peptide antigen used to raise the antiserum. In words: Competition ELISA, antiserum affinity for its own peptide antigen. Further details: species or system Pseudomonas aeruginosa. Particulars: peptide giving 50% inhibition of antibody binding to PAK pilin; read-out: Antigen I50.
In series [5] the test system is AcPAO(128-144)OH. The series is classed as binding, Pseudomonas aeruginosa. Particulars: cross-reactivity of an antiserum: affinity for native PAK over native PAO peptide, 1 = same affinity.
Setting [6] is: fold increase (+) or decrease (−) in affinity compared to antiserum 17-01.

“Also recorded” adds a separate entry of the source.

Take “KCTSDQDEQFIPKGCSK [PAK, reference compound]”: the “protection / survival time after PAO wild-type challenge” value in series [1] is reported as “does not provide protection against PAO challenge”. For the same sequence, on AcPAO(128-144)OH [2], the “cross-reactivity of the antiserum with PAO” value (“cross-reactivity … with PAO” for short) is “cross-reactive with the native PAO sequence”.
Consider KCTSTQDPQFIPKGCSK [CS2], for which the “protection after P1 wild-type challenge” value with P1 wild-type was “high level of protection”. The “protection / survival time after PAO wild-type challenge” value in series [1] is listed as “complete protection”. For the same sequence, in the series on PAK wild-type, the “protection after PAK wild-type challenge” value was “very high level of protection”. In addition, the “cross-reactivity … with PAO” value in the series with AcPAO(128-144)OH [2] is on record as “enhanced cross-reactivity to PAO”.
Turning to KCTSTQDPQFTPKGCSK [CS3], the “protection after P1 wild-type challenge” value in the series with P1 wild-type is “high level of protection”.
As to KCKSDQDPQFIPKGCSK [CS1], the “protection after KB7 wild-type challenge” value with KB7 wild-type is “effective in protecting; also recorded: good protection”. Also, the “protection after P1 wild-type challenge” value in the series with P1 wild-type was “effective in protecting; also recorded: high level of protection”. Besides, the “cross-reactivity of the antiserum with P1” value with AcP1(126-148)OH is on record as “moderate cross-reactivities”. The “cross-reactivity … with PAO” value at AcPAO(128-144)OH [2] is given as “very high cross-reactivities”. The “Colony Forming Units in BAL Fluid” value in series [3] (immunized i.n. & i.p.) is 47 CFU (× 10^3)/mL; in series [3] (immunized i.n.), 0 CFU (× 10^3)/mL; in series [3] (immunized i.p.), 5 CFU (× 10^3)/mL. The “White Blood Cell Counts in BAL Fluid, Total Cells” value in series [3] (immunized i.n. & i.p.) is 4 (× 10^4)/mL; in [3] (immunized i.n.), 1 (× 10^4)/mL; in [3] (immunized i.p.), 28 (× 10^4)/mL. Besides, the “cross-reactivity of the antiserum with PAK” value at AcPAK(128-144)OH (antiserum raised to the named peptide) is “very high cross-reactivities”. Moreover, the “cross-reactivity of the antiserum with KB7” value with AcKB7(128-144)OH is “moderate cross-reactivities”.
On to KCTSDQDPQFIPKGCSK [E135P], for which the IC50 amounted to 0.7 µM in series [4]; 176 µM in the series on AcP1(126-148)OH (competition ELISA on PAK pili, read-out: I50 for P1); 4750 µM on AcPAO(128-144)OH [2] (competition ELISA on PAK pili, read-out: I50 for PAO); 0.41 µM at AcPAK(128-144)OH (competition ELISA on PAK pili, read-out: I50 for PAK); 835 µM in the series on AcKB7(128-144)OH (peptide giving 50% inhibition of antibody binding to PAK pilin, read-out: KB7 I50). Further, in the series on AcP1(126-148)OH, the “cross-reactivity of the antiserum with P1” value is “not cross-reactive”. Also, the “PI A” value in the series with AcP1(126-148)OH (setting [6]) is “+6.9”. Further, the “cross-reactivity … with PAO” value at AcPAO(128-144)OH [2] is “not able to effectively bind; also recorded: less cross-reactive than native PAK antiserum; also recorded: less cross-reactive to PAO than PAK peptide”. In addition, at AcPAO(128-144)OH [2] (setting [6]), the “PAO A” value was −19.7. Further, the KPAK/KPAO with AcPAO(128-144)OH [5] is given as 11,600. Besides, the “PAK A” value on AcPAK(128-144)OH (setting [6]) was −2.2. Moreover, the “cross-reactivity of the antiserum with KB7” value in the series on AcKB7(128-144)OH is listed as “not able to effectively bind; also recorded: not cross-reactive”. For the same sequence, the “KB7 A” value in the series on AcKB7(128-144)OH (setting [6]) was −1.2.
As for KCKSTQDEMFTPKGCSK [CS4], the “protection after P1 wild-type challenge” value in the series with P1 wild-type is listed as “good protection”.

Values taken from patent US20030228324A1, “Peptide compositions and methods of producing and using same” (priority 1999, published 2003).
